Where a name gives a salt, the structure may show the parent alone. Read-outs that look alike come from different tables or passages of the source.
Experiments:
[1] = Solubility of test compounds (choice of control media); settings: water or DMSO
[2] = system: human primary smooth muscle cells (PVSMC); settings: endothelin-1 100 nM; for synergy in combination with SIN: bitter agent 1 mM with low SIN doses (10 μM)
Protocol: An in vitro model using human primary smooth muscle cells (PVSMC) were stimulated to contract with 100 nM endothelin-1, then treated with various test compounds alone and in combination with the PDE-5 inhibitor sildenafil, approved to treat PAH. The concentration used were 3-CQL at 1 mM, DB at 1 mM, DS at 1 mM and SIN (sildenafil) at 10 μM. The controls were 0.5% and 1% DMSO in media because DB is water-soluble but DS, 3-CQL and SIN are DMSO soluble.

[3] = system: primary pulmonary SMCs; assay: Second experiment: primary pulmonary SMCs induced to contract with 10 μM phenylephernine (PE); format: cell-based; settings: PE 10 μM; for synergy in combination with SIN: bitter agent with low SIN doses
Protocol: In a second experiment, primary pulmonary SMCs were induced to contract using 10 μM phenylephernine (PE). PE was added after a baseline reading. The test compounds were added after a second timepoint and 800-1300 cells were assayed per trace, starting with FIG. 6.

[4] = system: TAS2R subtypes; settings: cited from earlier work
[5] = cited from earlier work
[6] = SIN by itself at low doses (10 μM)

Row | solubility [1] | Molecule | synergy in combination with SIN [2] | synergy in combination with SIN [3] | TAS2R subtypes activated (number) [4] | also measured
1 | DMSO soluble | CCCc1nn(C)c2c(=O)[nH]c(-c3cc(S(=O)(=O)N4CCN(C)CC4)ccc3OCC)nc12 [SIN, sildenafil, reference compound] |  |  |  | efficacy in reversal from peak contraction of the PVSMCs ([2]; SIN at 100 μM): extremely effective; efficacy in reversal from peak contraction of the PVSMCs [2, 6]: not effective; in vitro efficacy against PE-induced contraction ([3]; SIN at 100 μM): extremely effective; in vitro efficacy against PE-induced contraction [3, 6]: not effective
2 | DMSO soluble | O=C(/C=C/c1ccc(O)c(O)c1)O[C@@H]1C[C@]2(O)C[C@@H](OC2=O)[C@@H]1O [3-CQL, 3-caffeoylquinic-1,5-lactone] | synergy | possibly |  | 
3 |  | CC[N+](CC)(CC(=O)Nc1c(C)cccc1C)Cc1ccccc1.O=C([O-])c1ccccc1 [DB, Denatonium Benzoate] | synergy | synergy | 8 | potency in reversal from peak contraction of the PVSMCs ([2]; DB alone (1 mM)): not potent
4 |  | quinine [reference compound] |  |  | 9 | 
5 |  | CC[N+](CC)(CC(=O)Nc1c(C)cccc1C)Cc1ccccc1 [DS, Denatonium Saccharide] | synergy | synergy |  | 
6 |  | CN1CCc2cccc3c2[C@H]1Cc1ccc(O)c(O)c1-3 [Apomorphine, 5,6,6a,7-Tetrahydro-6-methyl-4H-dibenzo[de,g]quinoline-10,11-diol hydrochloride] |  |  |  | oral availability [5]: ~4%

From patent publication US12268660B2, “Oral pharmaceutical formulations of bitter compounds for pulmonary hypertension” (Aardvark Therapeutics Inc., priority 2018, dated 2025)
